# Measured values from article PMC7804942, “The amphibian peptide Yodha is virucidal for Zika and dengue viruses” (Scientific Reports, 2021).
# Where a SMILES comes first, the peptide text is derived from it.
# Columns and labels:
# ZIKV (PRVABC59) = assay: ZIKV entry, immunofluorescence of flavivirus E protein in Vero cells; assay type: cell-based, Zika virus; details: ZIKV exposed to peptide, then Vero cells infected for 30 min
# Description: Next, we determined whether the observed Yodha peptide-induced decrease in viral titers was due to blocked viral entry. We reasoned that if the peptide directly kills or disrupts the envelope structure of ZIKV, this would prevent virus entry. To test this, we designed an experiment to measure virus entry, by allowing ZIKV to bind cells at 4 °C for 1 h followed by shifting the cells to 37 °C to permit virus entry (Fig. 2A). It has been shown that DENV2 entry occurs within 25 min by early endosome trafficking. Briefly, we exposed ZIKV to Yodha peptide and then allowed the virus to infect Vero cells for 30 min. We then measured viral RNA within the Vero cells by quantitative Real Time-PCR (qRT-PCR) (Fig. 2B). […] Next, we visualized ZIKV entry or lack thereof by immunofluorescence using antibodies against pan flavivirus E protein. […] Next, we sought to determine if Yodha peptide could reduce infectious virus production in cells already infected with ZIKV. Briefly, we infected Vero cells, allowed virus attachment and entry, and then added Yodha peptide to the culture medium at 1, 24, 48, and 72 h post-infection. We collected culture supernatants at 3, 24, 48, and 72 h after ZIKV infection to quantitate ZIKV by FFU assay (Fig. 2E). ZIKV was not detected at 3 h post-infection in both OVA- or Yodha-treated cells. […]
# ZIKV [1] = assay: Transmission electron microscopy of peptide-treated ZIKV; design: species or system Zika virus; details: 200 µM peptide, 10 min, negative staining TEM
# Description: To test this, we treated ZIKV with Yodha peptide or control peptide for 10 min and analyzed virus particles by electron microscopy.
# (A) TEM micrographs of ZIKV treated with OVA (control) or Yodha peptide are shown. ZIKV were incubated with the peptides at 200 µM for just 10 min, fixed with paraformaldehyde and then processed for electron microscopy. Yodha treatment led to loss of morphology and aggregation of virus particles. (B) Enlarged images of ZIKV treated with control or Yodha peptide from (A) are shown. The data is representative of three experiments performed.
# ZIKV samples were fixed with 4% buffered paraformaldehyde before negative staining. 5 µl of Zika sample was then deposited onto a 400-mesh carbon-coated copper grid that had been treated by glow-discharged for 20 s and allowed 5 min for the sample to settle in a covered glass dish. The grids with samples were then quickly washed by touching the sample side on two drops double distilled water, wick with filter paper, and then stained with 1% phosphotungstic acid (PTA) for 15 s before removing PTA with filter paper. Zika virus was imaged on a JEOL JEM-1400 transmission electron microscope (JEOL Ltd., Tokyo, Japan) equipped with a Gatan US1000 CCD camera (Gatan, Pleasanton, CA).
# ZIKV [2] = assay: ZIKV neutralisation by mutant, enantiomer and variant peptides (strain not stated); assay type: cell-based, Zika virus
# Description: To further characterize Yodha peptide, we generated alanine-scanning mutants of the peptide, which removes the side chain, but maintains peptide conformation, allowing for the assessment of the significance of each amino acid within the larger structure (Fig. 4A). Each of 23 mutated peptides was tested for its (a) ability to neutralize ZIKV (Fig. 4B) and (b) toxicity against human RBC, if any (Fig. 4C).
# So next, we sought to determine how common this peptide or its analogs are in host defense peptides isolated from elsewhere in the world. […] We then determined the extent to which any of these variant peptides can neutralize ZIKV. […] We also generated a series of mutant Yodha peptides, including one which lacks the C terminal DDQERC, a short 12 peptide fragment that lacks the EEERGA from variant #12, and a S1P peptide that replace S1-P in the full-length Yodha (Fig. 5D) and tested their activity against ZIKV (Fig. 5D).
# (§1) Peptides were incubated with ZIKV (100 FFU/well) for 2 h at 37 °C. This incubated mixture was used to infect Vero cells for 1.5 h at 37 °C. Cells and inoculum were overlaid with 2% methylcellulose solution (OptiMEM; Gibco) and incubated for 72 h at 37 °C. Cells were washed with PBS and fixed with a 1:1 methanol/acetone mixture for 30 min. Cells were blocked with 5% milk/PSB at room temperature for 20 min and incubated with primary antibody (anti-flavivirus mouse 4G2[10] antibody) for 2 h at 37 °C. Then, cells were incubated with secondary antibody (HRP-conjugated goat anti-mouse IgG, Cell Signaling) for 1 h at 37 °C. Cells were developed with TrueBlue Peroxidase Substrate (KPL). Plates were read on a CTL-ImmunoSpot S6 Micro analyzer.
# human red blood cells = assay type: cell-based
# Description: Single donor human red blood cells (Innovative Research) were washed in PBS (pH 7.4) with three times centrifugation at 500 × g for 5 min. Serially diluted frog peptides or OVA control peptide were prepared in V-bottom 96 well plates and mixed with washed 2 × 10^7 human RBC per each well for 1 h at 37 °C. PBS solution was used as a negative control (0% lysis), and 0.1% Triton X-100 in PBS was used as 100% lysis. The plates were centrifuged at 300 × g at 4 °C for 5 min to pellet the intact RBCs and supernatant of each well was measured by absorbance at 450 nm.
# DENV1 = assay: Focus forming assay, dengue virus; assay type: cell-based; details: 50 µM peptide, FFA
# Description: (§2) Dengue virus strains 1, 2, 3 and 4 were treated with wither Yodha or control OVA peptide at (A) 50 µM (B) 160 µM concentration and the % of viral focus forming units were determined. (C) IC50 measurement of Yodha in DENVs infection by FFA. […] OVA peptide was used a negative control.
# as §1
# DENV4 = assay: Focus forming assay, dengue virus; assay type: cell-based; details: 50 µM peptide, FFA
# Description: as §2, §1
# DENV2 = assay: Focus forming assay, dengue virus; assay type: cell-based; details: 50 µM peptide, FFA
# Description: as §2, §1
compound,measurement,setting,value
CC[C@H](C)[C@H](NC(=O)[C@@H](NC(=O)CNC(=O)[C@H](CC(C)C)NC(=O)[C@H](Cc1ccccc1)NC(=O)[C@H](Cc1ccccc1)NC(=O)[C@H](CC(C)C)NC(=O)[C@H](CC(C)C)NC(=O)[C@H](CC(C)C)NC(=O)[C@H](CCSC)NC(=O)[C@@H](N)CO)[C@@H](C)O)C(=O)N[C@@H](CO)C(=O)N[C@@H](CC(C)C)C(=O)N[C@@H](CO)C(=O)N[C@@H](CC(C)C)C(=O)N[C@@H](CS)C(=O)N[C@@H](CCC(N)=O)C(=O)N[C@@H](CC(=O)O)C(=O)N[C@@H](CC(=O)O)C(=O)N[C@@H](CCC(N)=O)C(=O)N[C@@H](CCC(=O)O)C(=O)N[C@@H](CCCNC(=N)N)C(=O)N[C@@H](CS)C(=O)O [Yodha] (H-SMLLLFFLGTISLSLCQDDQERC-OH; N-terminus and C-terminus assumed),expression of ZIKV envelope in cells (immunofluorescence),ZIKV (PRVABC59),decreased expression of ZIKV envelope
same,virus particle integrity by electron microscopy,ZIKV [1],disruption of viral particles
same,"anti-viral activity against ZIKV, D- versus L-enantiomer",ZIKV [2],comparable anti-viral activity
same,cytotoxicity against human erythrocytes (screen of the 12 hits),human red blood cells,no cytotoxicity
same,inhibition of DENV1,DENV1,efficiently inhibited
same,inhibition of DENV4,DENV4,efficiently inhibited
same,inhibition of DENV2,DENV2,efficiently inhibited
